Assay results as given in patent US12692253B2, “Antimicrobial compounds and methods” (Curza Global, LLC, priority 2019, dated 2026).
Read-outs that look alike come from different tables or passages of the source.

Experiments:
[1] = test system: E. coli S30 extract (bacterial protein synthesis); assay: E. coli S30 extract coupled transcription-translation luciferase assay (inhibition of bacterial protein synthesis); format: biochemical; conditions: read-out: S30 IC50 (μM/% inhib.)
In short: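 Coupled transcription-translation in E. coli S30 circular-DNA extract expressing luciferase from pBESTluc, with 8-point 2-fold compound dilutions; 1 hour at 37 °C, stopped at 4 °C. Luminescence read; % inhibition versus no-inhibitor wells, no-DNA wells as background.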

[2] = biological target: Rabbit Reticulocyte Lysate (eukaryotic protein synthesis); assay: Rabbit reticulocyte lysate luciferase assay (inhibition of eukaryotic protein synthesis); format: biochemical; conditions: read-out: Rabbit reticulocyte IC50 (μM/% inhib.)
In short: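 In vitro translation of luciferase control RNA in nuclease-treated rabbit reticulocyte lysate with amino acid mixture, compounds in 2-fold serial dilution, 90 minutes at 30° C. Luminescence read after luciferase reagent; % inhibition relative to water no-inhibitor controls, with no-RNA background wells.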

A. baumannn (Ab) = assay: Broth microdilution minimum inhibitory concentration (MIC), CLSI; format: cell-based; conditions: read-out: Ab + bicarb MIC
In short: (§1)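 Modified CLSI method: CAMHB (± bicarbonate 6.25/25 mM or 0-50% human serum), 8-point two-fold series, triplicates, 5×10^4 CFU/well.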

E. coli (Ec) = assay: as above; format: cell-based; conditions: Escherichia coli, read-out: E. coli + bicarb MIC
In short: as §1

E. faecalis (Ef) = assay: as above; format: cell-based; conditions: Enterococcus faecalis, read-out: Ef + bicarb MIC
In short: as §1

P. aeruginosa (Pa) = assay: as above; format: cell-based; conditions: Pseudomonas aeruginosa, read-out: Pa MIC + bicarb
In short: as §1

S. aureus (Sa) = assay: as above; format: cell-based; conditions: Staphylococcus aureus, read-out: Sa + bicarb MIC
In short: as §1

[3] = class by IC50 or % inhibition @ 1 μM
[4] = growth medium supplemented with sodium bicarbonate
[5] = A. baumannn, growth medium with sodium bicarbonate
[6] = growth medium with sodium bicarbonate

Structure (SMILES)	IC50 [1, 3]	IC50 [2, 3]	MIC (A. baumannn (Ab); Acinetobacter baumannii)	MIC (E. coli (Ec); [4])	MIC (E. faecalis (Ef); [4])	MIC (P. aeruginosa (Pa); [4])	MIC (S. aureus (Sa); [4])	IC50 ([1]; % inhibition @ 1 μM)	IC50 ([2]; % inhibition @ 1 μM)	MIC (A. baumannn (Ab); [5])	MIC (E. coli (Ec); [6])	MIC (E. faecalis (Ef); [6])	MIC (P. aeruginosa (Pa); [6])	MIC (S. aureus (Sa); [6])
CC(C)(N)C(=O)N1CCN(C(=O)Nc2ccn(-c3ccc(CCN4C[C@@H]5[C@@H](CN)[C@@H]5C4)c(C(F)(F)F)c3)c(=O)n2)CC1 [Compound 102]	< 0.5 µM	≥ 1 µM	> 32 µg/mL	< 8 µg/mL	8 to 32 µg/mL	8 to 32 µg/mL	< 8 µg/mL	–	–	–	–	–	–	–
CC(COc1ccc(-n2ccc(NC(=O)N3CCN(C(=O)C(C)(C)N)CC3)nc2=O)cc1)N1CC2CC2(CN)C1 (stereo not drawn) [Compound 189]	–	–	–	–	–	–	–	< 0.5 µM	≥ 1 µM	> 32 µg/mL	< 8 µg/mL	< 8 µg/mL	> 32 µg/mL	< 8 µg/mL
NC1CCC12CCN(C(=O)Nc1ccn(-c3ccc(CN4C[C@@H]5[C@@H](N)[C@@H]5C4)cc3)c(=O)n1)CC2 (stereo partly drawn) [Compound 64]	≥ 1 µM	≥ 1 µM	> 32 µg/mL	8 to 32 µg/mL	8 to 32 µg/mL	> 32 µg/mL	8 to 32 µg/mL	–	–	–	–	–	–	–
CC(C)(N)C(=O)N1CCN(C(=O)Nc2ccn(-c3ccc(CCN4CC5CC5(CN)C4)c(C(F)(F)F)c3)c(=O)n2)CC1 (stereo not drawn) [Compound 131]	< 0.5 µM	≥ 1 µM	8 to 32 µg/mL	< 8 µg/mL	< 8 µg/mL	> 32 µg/mL	< 8 µg/mL	–	–	–	–	–	–	–
NC[C@@H]1CCN(C(=O)Nc2ccn(-c3ccc(CN4C[C@@H]5[C@@H](N)[C@@H]5C4)cc3)c(=O)n2)C1 [Compound 251]	–	–	–	–	–	–	–	≥ 1 µM	≥ 1 µM	> 32 µg/mL	> 32 µg/mL	> 32 µg/mL	> 32 µg/mL	> 32 µg/mL
CC(Cc1ccc(-n2ccc(NC(=O)N3CCN(C(=O)[C@H](C)N)CC3)nc2=O)cc1)N1C[C@@H]2[C@@H](CN)[C@@H]2C1 (stereo partly drawn) [Compound 222]	–	–	–	–	–	–	–	0.5 to 1 µM	≥ 1 µM	> 32 µg/mL	< 8 µg/mL	8 to 32 µg/mL	> 32 µg/mL	< 8 µg/mL
CCC(Cc1ccc(-n2ccc(NC(=O)N3CCN(C(=O)[C@@](C)(N)CO)CC3)nc2=O)cc1)N1C[C@@H]2[C@@H](CN)[C@@H]2C1 (stereo partly drawn) [Compound 151]	< 0.5 µM	≥ 1 µM	8 to 32 µg/mL	< 8 µg/mL	< 8 µg/mL	8 to 32 µg/mL	< 8 µg/mL	–	–	–	–	–	–	–
CC(C)(N)C(=O)N1CCN(C(=O)Nc2ccn(-c3ccc(CN4CCC5(CCNC5)C4)cc3)c(=O)n2)CC1 (stereo not drawn) [Compound 80]	< 0.5 µM	≥ 1 µM	> 32 µg/mL	< 8 µg/mL	> 32 µg/mL	> 32 µg/mL	< 8 µg/mL	–	–	–	–	–	–	–
CN(CCc1ccc(-n2ccc(NC(=O)N3CCN(C(=O)C(C)(C)N)CC3)nc2=O)cc1)C1CC2(CC(N)C2)C1 (stereo not drawn) [Compound 193]	–	–	–	–	–	–	–	≥ 1 µM	≥ 1 µM	> 32 µg/mL	< 8 µg/mL	8 to 32 µg/mL	> 32 µg/mL	< 8 µg/mL
CC(C)(N)C(=O)N1CCN(C(=O)Nc2ccn(-c3ccc(CCN4CC5(CNC5)C4)cc3)c(=O)n2)CC1 [Compound 160]	≥ 1 µM	≥ 1 µM	> 32 µg/mL	< 8 µg/mL	> 32 µg/mL	> 32 µg/mL	> 32 µg/mL	–	–	–	–	–	–	–
CC(Cc1ccc(-n2ccc(NC(=O)N3CCN(C(=O)C(C)(C)N)CC3)nc2=O)cc1F)NC1CC2(CC(N)C2)C1 (stereo not drawn) [Compound 192]	–	–	–	–	–	–	–	≥ 1 µM	≥ 1 µM	> 32 µg/mL	< 8 µg/mL	< 8 µg/mL	> 32 µg/mL	< 8 µg/mL
CC(Cc1ccc(-n2ccc(NC(=O)N3CCN(C(=O)C(C)(C)N)CC3)nc2=O)cc1F)N1C[C@@H]2[C@@H](CN)[C@@H]2C1 (stereo partly drawn) [Compound 139]	< 0.5 µM	≥ 1 µM	8 to 32 µg/mL	< 8 µg/mL	< 8 µg/mL	8 to 32 µg/mL	< 8 µg/mL	–	–	–	–	–	–	–
CC(Cc1ccc(-n2ccc(NC(=O)N3CCN(C(=O)C(C)(C)N)CC3)nc2=O)cc1)NCC1[C@H]2CNC[C@@H]12 (stereo partly drawn) [Compound 204]	–	–	–	–	–	–	–	≥ 1 µM	≥ 1 µM	> 32 µg/mL	< 8 µg/mL	> 32 µg/mL	> 32 µg/mL	< 8 µg/mL
CC(Cc1ccc(-n2ccc(NC(=O)N3CCN(C(=O)C(C)(C)N)CC3)nc2=O)cc1)N1CCC2(CC1)CNC2 (stereo not drawn) [Compound 163]	–	–	–	–	–	–	–	≥ 1 µM	≥ 1 µM	> 32 µg/mL	< 8 µg/mL	> 32 µg/mL	> 32 µg/mL	< 8 µg/mL
CC(Cc1ccc(-n2ccc(NC(=O)N3CCN(C(=O)C(C)(C)N)CC3)nc2=O)cc1)N1CC2(CC(N)C2)C1 (stereo not drawn) [Compound 112]	0.5 to 1 µM	≥ 1 µM	> 32 µg/mL	< 8 µg/mL	8 to 32 µg/mL	> 32 µg/mL	< 8 µg/mL	–	–	–	–	–	–	–
C[C@@H]1CN(C(=O)C(C)(C)N)CCN1C(=O)Nc1ccn(-c2ccc(CN3C[C@@H]4[C@@H](N)[C@@H]4C3)cc2)c(=O)n1 [Compound 28]	< 0.5 µM	≥ 1 µM	> 32 µg/mL	< 8 µg/mL	< 8 µg/mL	> 32 µg/mL	< 8 µg/mL	–	–	–	–	–	–	–
NC[C@@H]1[C@H]2CN(C(=O)Nc3ccn(-c4ccc(CN5C[C@@H]6[C@@H](N)[C@@H]6C5)cc4)c(=O)n3)C[C@@H]12 [Compound 247]	–	–	–	–	–	–	–	≥ 1 µM	≥ 1 µM	> 32 µg/mL	> 32 µg/mL	> 32 µg/mL	> 32 µg/mL	> 32 µg/mL
N[C@@H]1[C@H]2CN(Cc3ccc(-n4ccc(NC(=O)N5CCC6(CCNCC6)CC5)nc4=O)cc3)C[C@@H]12 [Compound 62]	≥ 1 µM	≥ 1 µM	> 32 µg/mL	< 8 µg/mL	8 to 32 µg/mL	> 32 µg/mL	< 8 µg/mL	–	–	–	–	–	–	–
CC(Cc1ccc(-n2ccc(NC(=O)N3CCN(C(=O)C4(N)CC4)CC3)nc2=O)cc1)N1C[C@@H]2[C@@H](CN)[C@@H]2C1 (stereo partly drawn) [Compound 226]	–	–	–	–	–	–	–	≥ 1 µM	≥ 1 µM	> 32 µg/mL	> 32 µg/mL	> 32 µg/mL	> 32 µg/mL	> 32 µg/mL
NCC1CCN(C(=O)Nc2ccn(-c3ccc(CN4C[C@@H]5[C@@H](N)[C@@H]5C4)cc3)c(=O)n2)CC1 [Compound 248]	–	–	–	–	–	–	–	≥ 1 µM	≥ 1 µM	> 32 µg/mL	> 32 µg/mL	> 32 µg/mL	> 32 µg/mL	> 32 µg/mL
CC[C@@H](N)C1[C@H]2CN(CCc3ccc(-n4ccc(NC(=O)N5CCN(C(=O)C(C)(C)N)CC5)nc4=O)cc3)C[C@@H]12 (stereo partly drawn) [Compound 152]	≥ 1 µM	≥ 1 µM	> 32 µg/mL	8 to 32 µg/mL	> 32 µg/mL	> 32 µg/mL	> 32 µg/mL	–	–	–	–	–	–	–
CC(Cc1ccc(-n2ccc(NC(=O)N3CCN(C(=O)C(C)(C)N)CC3)nc2=O)cc1)N(C)C1CC2(CC(N)C2)C1 (stereo not drawn) [Compound 191]	–	–	–	–	–	–	–	≥ 1 µM	≥ 1 µM	8 to 32 µg/mL	< 8 µg/mL	< 8 µg/mL	8 to 32 µg/mL	< 8 µg/mL
C[C@@](N)(CO)C(=O)N1CCN(C(=O)Nc2ccn(-c3ccc(CCN4CCC5CC5(N)C4)cc3)c(=O)n2)CC1 (stereo partly drawn) [Compound 99]	0.5 to 1 µM	≥ 1 µM	> 32 µg/mL	< 8 µg/mL	8 to 32 µg/mL	> 32 µg/mL	< 8 µg/mL	–	–	–	–	–	–	–
CC(Cc1ccc(-n2ccc(NC(=O)N3CCN(C(=O)C(C)(C)N)CC3)nc2=O)cc1)N1C[C@@H]2[C@@H](CN)[C@@H]2[C@H]1CO (stereo partly drawn) [Compound 157]	< 0.5 µM	≥ 1 µM	> 32 µg/mL	< 8 µg/mL	8 to 32 µg/mL	> 32 µg/mL	< 8 µg/mL	–	–	–	–	–	–	–
CN(Cc1ccc(-n2ccc(NC(=O)N3CCN(C(=O)C(C)(C)N)CC3)nc2=O)cc1)C12CC(CN)(C1)C2 [Compound 174]	–	–	–	–	–	–	–	≥ 1 µM	≥ 1 µM	> 32 µg/mL	< 8 µg/mL	8 to 32 µg/mL	> 32 µg/mL	< 8 µg/mL
CC(Cc1ccc(-n2ccc(NC(=O)N3CCN(C(=O)C(C)(C)N)CC3)nc2=O)cc1)N1C[C@@H]2[C@H](C1)[C@H]2C(N)=O (stereo partly drawn) [Compound 136]	≥ 1 µM	≥ 1 µM	> 32 µg/mL	> 32 µg/mL	> 32 µg/mL	> 32 µg/mL	> 32 µg/mL	–	–	–	–	–	–	–
CCC(Cc1ccc(-n2ccc(NC(=O)N3CCN(C(=O)C(C)(C)N)CC3)nc2=O)cc1)N1C[C@@H]2[C@@H](CN)[C@@H]2C1 (stereo partly drawn) [Compound 135]	< 0.5 µM	≥ 1 µM	< 8 µg/mL	< 8 µg/mL	< 8 µg/mL	< 8 µg/mL	< 8 µg/mL	–	–	–	–	–	–	–
